The structures appear in SMILES notation.

The nature of the assay: Antagonist activity at CCR5 receptor expressed in HeLa-P4 cells co-expressing CD4 assessed as inhibition of infusion to HIV gp120 expressed in CHO-tat10 cells after 20 hrs by cell-cell fusion assay.
One may read the IC50 as the concentration needed to halve the response being measured. As to `Cc1nc(C(C)C)n([C@H]2C[C@H]3CC[C@@H](C2)N3CC[C@H](NC(=O)C2CCC(F)(F)CC2)c2ccccc2)n1` [endo-4,4-difluoro-N-((S)-3-(3-(5-isopropyl-3-methyl-1H-1,2,4-triazol-1-yl)-8-azabicyclo[3.2.1]octan-8-yl)-1-phenylpropyl)cyclohexanecarboxamide], the IC50 was 1.4 nM.
On to `CC(=O)N[C@@H](CCN1[C@@H]2CC[C@H]1C[C@@H](n1c(C)nc3c1CN(C)CC3)C2)c1ccccc1` [endo-N-((S)-3-(3-(2,5-dimethyl-4,5,6,7-tetrahydro-3H-imidazo[4,5-c]pyridin-3-yl)-8-azabicyclo[3.2.1]octan-8-yl)-1-phenylpropyl)acetamide], for which the IC50 stood at 5 nM.
In the case of `CC(=O)N[C@@H](CCN1[C@@H]2CC[C@H]1C[C@@H](n1c(C)nc3ccccc31)C2)c1ccccc1` [endo-N-((S)-3-(3-(2-methyl-1H-benzo[d]imidazol-1-yl)-8-azabicyclo[3.2.1]octan-8-yl)-1-phenylpropyl)acetamide], the IC50 turned out to be 0.5 nM.
As to `CC(=O)N[C@@H](CCN1[C@@H]2CC[C@H]1C[C@@H](n1c(C)nc3c1CNCC3)C2)c1ccccc1` [endo-N-((S)-3-(3-(2-methyl-4,5,6,7-tetrahydro-3H-imidazo[4,5-c]pyridin-3-yl)-8-azabicyclo[3.2.1]octan-8-yl)-1-phenylpropyl)acetamide], the IC50 was 9 nM.
With `CC(=O)N[C@@H](CCN1[C@@H]2CC[C@H]1C[C@@H](n1c(C)nc3c1CN(S(C)(=O)=O)CC3)C2)c1ccccc1` [endo-N-((S)-3-(3-(2-methyl-5-(methylsulfonyl)-4,5,6,7-tetrahydro-3H-imidazo[4,5-c]pyridin-3-yl)-8-azabicyclo[3.2.1]octan-8-yl)-1-phenylpropyl)acetamide] the figure was 2 nM; with `CCC(=O)N1CCc2nc(C)n([C@H]3C[C@H]4CC[C@@H](C3)N4CC[C@H](NC(C)=O)c3ccccc3)c2C1` [endo-N-((S)-3-(3-(2-methyl-5-propionyl-4,5,6,7-tetrahydro-3H-imidazo[4,5-c]pyridin-3-yl)-8-azabicyclo[3.2.1]octan-8-yl)-1-phenylpropyl)acetamide], 0.4 nM.
With `CC(=O)N[C@@H](CCN1[C@@H]2CC[C@H]1C[C@@H](n1c(C)nc3c1CN(C(C)=O)CC3)C2)c1ccccc1` [endo-N-((S)-3-(3-(5-acetyl-2-methyl-4,5,6,7-tetrahydro-3H-imidazo[4,5-c]pyridin-3-yl)-8-azabicyclo[3.2.1]octan-8-yl)-1-phenylpropyl)acetamide], the IC50 was 0.4 nM.
As for `CC(=O)N[C@@H](CCN1[C@@H]2CC[C@H]1C[C@@H](n1c(C)nc3c1CN(Cc1ccccc1)CC3)C2)c1ccccc1` [endo-N-((S)-3-(3-(5-benzyl-2-methyl-4,5,6,7-tetrahydro-3H-imidazo[4,5-c]pyridin-3-yl)-8-azabicyclo[3.2.1]octan-8-yl)-1-phenylpropyl)acetamide], the IC50 was found to be 29 nM.
With `CC(=O)N[C@@H](CCN1[C@@H]2CC[C@H]1C[C@@H](n1c(C)nc3c1CN(C(=O)C(C)C)CC3)C2)c1ccccc1` [endo-N-((S)-3-(3-(5-isobutyryl-2-methyl-4,5,6,7-tetrahydro-3H-imidazo[4,5-c]pyridin-3-yl)-8-azabicyclo[3.2.1]octan-8-yl)-1-phenylpropyl)acetamide] the figure was 0.4 nM; with `CC(=O)N[C@@H](CCN1[C@@H]2CC[C@H]1C[C@@H](n1c(C)nc3c1CN(C(C)C)CC3)C2)c1ccccc1` [endo-N-((S)-3-(3-(5-isopropyl-2-methyl-4,5,6,7-tetrahydro-3H-imidazo[4,5-c]pyridin-3-yl)-8-azabicyclo[3.2.1]octan-8-yl)-1-phenylpropyl)acetamide], 3 nM.
With `COC(=O)N[C@@H](CCN1[C@@H]2CC[C@H]1C[C@@H](n1c(C)nc3c1CN(C(=O)OC)CC3)C2)c1cccc(F)c1` [endo-methyl 3-(8-((S)-3-(3-fluorophenyl)-3-(methoxycarbonylamino)propyl)-8-azabicyclo[3.2.1]octan-3-yl)-2-methyl-6,7-dihydro-3H-imidazo[4,5-c]pyridine-5(4H)-carboxylate], the IC50 was 0.2 nM.
In the case of `COC(=O)N1CCc2nc(C)n([C@H]3C[C@H]4CC[C@@H](C3)N4CC[C@H](NC(C)=O)c3cccc(F)c3)c2C1` [endo-methyl 3-(8-((S)-3-acetamido-3-(3-fluorophenyl)propyl)-8-azabicyclo[3.2.1]octan-3-yl)-2-methyl-6,7-dihydro-3H-imidazo[4,5-c]pyridine-5(4H)-carboxylate], the IC50 was found to be 0.1 nM.
Regarding `COC(=O)N1CCc2nc(C)n([C@H]3C[C@H]4CC[C@@H](C3)N4CC[C@H](NC(C)=O)c3ccccc3)c2C1` [endo-methyl 3-(8-((S)-3-acetamido-3-phenylpropyl)-8-azabicyclo[3.2.1]octan-3-yl)-2-methyl-6,7-dihydro-3H-imidazo[4,5-c]pyridine-5(4H)-carboxylate], the IC50 turned out to be 0.3 nM.
With `COC(=O)N[C@@H](CCN1[C@@H]2CC[C@H]1C[C@@H](n1c(C)nc3c1CN(C(C)=O)CC3)C2)c1cccc(F)c1` [endo-methyl(S)-3-(3-(5-acetyl-2-methyl-4,5,6,7-tetrahydro-3H-imidazo[4,5-c]pyridin-3-yl)-8-azabicyclo[3.2.1]octan-8-yl)-1-(3-fluorophenyl)propylcarbamate] the figure was 0.2 nM.
With `COC(=O)N[C@@H](CCN1[C@@H]2CC[C@H]1C[C@@H](n1c(C)nc3c1CN(C(C)=O)CC3)C2)c1ccccc1` [endo-methyl(S)-3-(3-(5-acetyl-2-methyl-4,5,6,7-tetrahydro-3H-imidazo[4,5-c]pyridin-3-yl)-8-azabicyclo[3.2.1]octan-8-yl)-1-phenylpropylcarbamate] the figure was 0.6 nM.

The record behind these values is BindingDB's records for doi:10.1021/jm100978n (Pfizer, 2011).
